We go through 22 compounds from ChEMBL document CHEMBL1137480, “Synthesis and structure-activity relationship of 7-(substituted)-aminomethyl-4-quinolone-3-carboxylic acid derivatives” (2007).

Assay type in all cases: functional
In assay [1] the test system is Staphylococcus aureus. The assay is described as follows: Antibacterial activity against Staphylococcus aureus 26003 after 24 hrs by agar dilution method. Background: In agar dilution, organisms are placed on agar that contains the substance at set levels.
Assay [2] concerns Staphylococcus epidermidis. The assay is described as follows: Antibacterial activity against Staphylococcus epidermidis 26069 after 24 hrs by agar dilution method.
Assay [3] deals with Streptococcus pneumoniae. The assay is described as follows: Antibacterial activity against Streptococcus pneumoniae 31002 after 24 hrs by agar dilution method.
Assay [4] concerns Shigella boydii. Nature of the assay: Antibacterial activity against Shigella boydii 51313 after 24 hrs by agar dilution method.
Assay [5] relates to Klebsiella pneumoniae. The assay is described as follows: Antibacterial activity against Klebsiella pneumoniae 46101 after 24 hrs by agar dilution method.
The subject of assay [6] is Salmonella. The assay is described as follows: Antibacterial activity against […] 48107 after 24 hrs by agar dilution method.

SMILES strings stand for the structures. In brackets after ≈: the same amount, converted by molar mass.

The term MIC denotes the lowest concentration found to suppress growth. Low values mean greater potency, high ones weaker potency. Take `C[C@H]1COc2c(CNc3ccc(F)cc3)c(F)cc3c(=O)c(C(=O)O)cn1c23`: the MIC in assay [1] was 0.78 µg/mL (≈ 2.02 µM); in assay [2] it was 0.78 µg/mL (≈ 2.02 µM); in assay [3], 0.049 µg/mL (≈ 0.127 µM); in assay [4], 0.78 µg/mL (≈ 2.02 µM); in assay [5], 0.78 µg/mL (≈ 2.02 µM); in assay [6], 0.78 µg/mL (≈ 2.02 µM).
As for `C[C@H]1COc2c(CNc3ccc(F)c(Cl)c3)c(F)cc3c(=O)c(C(=O)O)cn1c23`, the minimum inhibitory concentration (MIC) is 0.098 µg/mL (≈ 0.233 µM) in assay [1]; 0.195 µg/mL (≈ 0.463 µM) in assay [2]; at most 0.049 µg/mL in assay [3]; 0.195 µg/mL (≈ 0.463 µM) in assay [4]; 0.195 µg/mL (≈ 0.463 µM) in assay [5]; 0.39 µg/mL (≈ 0.927 µM) in assay [6].
For `CC1COc2c(CNc3ccc(Cl)cc3)c(F)cc3c(=O)c(C(=O)O)cn1c23` (configuration not stated), the MIC was 0.195 µg/mL (≈ 0.484 µM) in assay [1]; 0.78 µg/mL (≈ 1.94 µM) in assay [2]; at most 0.049 µg/mL in assay [3]; 1.56 µg/mL (≈ 3.87 µM) in assay [4]; over 6.25 µg/mL in assay [5]; 1.56 µg/mL (≈ 3.87 µM) in assay [6].
`C[C@H]1COc2c(CN(C)c3ccc(F)cc3)c(F)cc3c(=O)c(C(=O)O)cn1c23`: the minimum inhibitory concentration (MIC) in assay [1] was determined as 3.13 µg/mL (≈ 7.82 µM); in assay [2], 3.13 µg/mL (≈ 7.82 µM); in assay [3], 0.39 µg/mL (≈ 0.974 µM); in assay [4], 1.56 µg/mL (≈ 3.9 µM); in assay [5], 1.56 µg/mL (≈ 3.9 µM); in assay [6] it was 1.56 µg/mL (≈ 3.9 µM).
With `Cc1ccc(NCc2c(F)cc3c(=O)c(C(=O)O)cn(C4CC4)c3c2F)cc1C`, the MIC is 0.39 µg/mL (≈ 0.979 µM) in assay [1]; 0.78 µg/mL (≈ 1.96 µM) in assay [2]; 0.098 µg/mL (≈ 0.246 µM) in assay [3]; 1.56 µg/mL (≈ 3.92 µM) in assay [4]; 1.56 µg/mL (≈ 3.92 µM) in assay [5]; 1.56 µg/mL (≈ 3.92 µM) in assay [6].
As to `O=C(O)c1cn(C2CC2)c2c(F)c(CNc3ccccc3)c(F)cc2c1=O`, the MIC was found to be 0.78 µg/mL (≈ 2.11 µM) in assay [1]; 1.56 µg/mL (≈ 4.21 µM) in assay [2]; 0.049 µg/mL (≈ 0.132 µM) in assay [3]; 0.39 µg/mL (≈ 1.05 µM) in assay [4]; 0.78 µg/mL (≈ 2.11 µM) in assay [5]; 0.39 µg/mL (≈ 1.05 µM) in assay [6].
In the case of `O=C(O)c1cn(C2CC2)c2c(F)c(CNc3ccc(F)c(Cl)c3)c(F)cc2c1=O`, the MIC turned out to be 0.39 µg/mL (≈ 0.922 µM) in assay [1]; 1.56 µg/mL (≈ 3.69 µM) in assay [2]; 0.39 µg/mL (≈ 0.922 µM) in assay [3]; 1.56 µg/mL (≈ 3.69 µM) in assay [4]; 1.56 µg/mL (≈ 3.69 µM) in assay [5]; 0.78 µg/mL (≈ 1.84 µM) in assay [6].
`CNCc1c(F)cc2c(=O)c(C(=O)O)cn3c2c1OCC3C` (configuration not stated): the MIC was 3.13 µg/mL (≈ 10.2 µM) in assay [1]; over 6.25 µg/mL in assay [2]; 3.13 µg/mL (≈ 10.2 µM) in assay [3]; 0.098 µg/mL (≈ 0.32 µM) in assay [4]; 0.098 µg/mL (≈ 0.32 µM) in assay [5]; at most 0.049 µg/mL in assay [6].
As for `CCCNCc1c(F)cc2c(=O)c(C(=O)O)cn(C3CC3)c2c1F`, the MIC in assay [1] was over 6.25 µg/mL; in assay [2], over 6.25 µg/mL; in assay [3], 3.13 µg/mL (≈ 9.31 µM); in assay [4], 0.195 µg/mL (≈ 0.58 µM); in assay [5], 0.39 µg/mL (≈ 1.16 µM); in assay [6], 0.098 µg/mL (≈ 0.291 µM).
Turning to `O=C(O)c1cn(C2CC2)c2c(F)c(CNC3CCCCC3)c(F)cc2c1=O`, the MIC in assay [1] is over 6.25 µg/mL; in assay [2] it was 6.25 µg/mL (≈ 16.6 µM); in assay [3], 1.56 µg/mL (≈ 4.14 µM); in assay [4], 0.78 µg/mL (≈ 2.07 µM); in assay [5] it was 0.195 µg/mL (≈ 0.518 µM); in assay [6], 0.195 µg/mL (≈ 0.518 µM).
As for `C[C@H]1COc2c(CN3CCCC3)c(F)cc3c(=O)c(C(=O)O)cn1c23`, the MIC in assay [1] was 6.25 µg/mL (≈ 18 µM); in assay [2] it was over 6.25 µg/mL; in assay [3], 0.78 µg/mL (≈ 2.25 µM); in assay [4], 0.39 µg/mL (≈ 1.13 µM); in assay [5], 0.049 µg/mL (≈ 0.141 µM); in assay [6], 0.098 µg/mL (≈ 0.283 µM).
Take `CN[C@H](CC(C)C)C(=O)N[C@H]1C(=O)N[C@@H](CC(N)=O)C(=O)N[C@H]2C(=O)N[C@H]3C(=O)N[C@H](C(=O)N[C@H](C(=O)O)c4cc(O)cc(O)c4-c4cc3ccc4O)[C@H](O)c3ccc(c(Cl)c3)Oc3cc2cc(c3O[C@@H]2O[C@H](CO)[C@@H](O)[C@H](O)[C@H]2O[C@H]2C[C@](C)(N)[C@H](O)[C@H](C)O2)Oc2ccc(cc2Cl)[C@H]1O` [VANCOMYCIN]: the minimum inhibitory concentration (MIC) is 0.39 µg/mL (≈ 0.269 µM) in assay [1]; 0.78 µg/mL (≈ 0.538 µM) in assay [2]; 0.098 µg/mL (≈ 0.0676 µM) in assay [3]; over 6.25 µg/mL in assay [4]; over 6.25 µg/mL in assay [5]; over 6.25 µg/mL in assay [6].
Turning to `C[C@H]1COc2c(CNC3CC3)c(F)cc3c(=O)c(C(=O)O)cn1c23`, the MIC in assay [1] was 3.13 µg/mL (≈ 9.42 µM); in assay [2] it was over 6.25 µg/mL; in assay [3], 0.39 µg/mL (≈ 1.17 µM); in assay [4], 0.049 µg/mL (≈ 0.147 µM); in assay [5], 0.049 µg/mL (≈ 0.147 µM); in assay [6], 0.049 µg/mL (≈ 0.147 µM).
With `O=C(O)c1cn(C2CC2)c2c(F)c(CNC3CC3)c(F)cc2c1=O`, the minimal inhibitory concentration (MIC) is 3.13 µg/mL (≈ 9.36 µM) in assay [1]; 6.25 µg/mL (≈ 18.7 µM) in assay [2]; 0.195 µg/mL (≈ 0.583 µM) in assay [3]; 0.098 µg/mL (≈ 0.293 µM) in assay [4]; at most 0.049 µg/mL in assay [5]; 0.098 µg/mL (≈ 0.293 µM) in assay [6].
For `C[C@H]1COc2c(CN3CCN(C)CC3)c(F)cc3c(=O)c(C(=O)O)cn1c23`, the minimum inhibitory concentration (MIC) is over 6.25 µg/mL in assay [1]; over 6.25 µg/mL in assay [2]; 1.56 µg/mL (≈ 4.16 µM) in assay [3]; 1.56 µg/mL (≈ 4.16 µM) in assay [4]; 0.78 µg/mL (≈ 2.08 µM) in assay [5]; 1.56 µg/mL (≈ 4.16 µM) in assay [6].
`O=C(O)c1cn(C2CC2)c2c(F)c(CNc3ccc(Cl)cc3)c(F)cc2c1=O`: the MIC was 0.39 µg/mL (≈ 0.963 µM) in assay [1]; 1.56 µg/mL (≈ 3.85 µM) in assay [2]; at most 0.049 µg/mL in assay [3]; 1.56 µg/mL (≈ 3.85 µM) in assay [4]; 1.56 µg/mL (≈ 3.85 µM) in assay [5]; 1.56 µg/mL (≈ 3.85 µM) in assay [6].
In the case of `CCCCNCc1c(F)cc2c(=O)c(C(=O)O)cn(C3CC3)c2c1F`, the MIC in assay [1] was over 6.25 µg/mL; in assay [2], over 6.25 µg/mL; in assay [3], 3.13 µg/mL (≈ 8.93 µM); in assay [4], 0.39 µg/mL (≈ 1.11 µM); in assay [5] it was at most 0.049 µg/mL; in assay [6] it was 0.195 µg/mL (≈ 0.557 µM).
Regarding `C[C@H]1COc2c(CN3CCNCC3)c(F)cc3c(=O)c(C(=O)O)cn1c23`, the MIC in assay [1] is over 6.25 µg/mL; in assay [2], over 6.25 µg/mL; in assay [3], over 6.25 µg/mL; in assay [4] it was over 6.25 µg/mL; in assay [5], 3.13 µg/mL (≈ 8.66 µM); in assay [6], over 6.25 µg/mL.
In the case of `C[C@H]1COc2c(CNc3cccc(Cl)c3)c(F)cc3c(=O)c(C(=O)O)cn1c23`, the minimal inhibitory concentration (MIC) turned out to be 1.56 µg/mL (≈ 3.87 µM) in assay [1]; 3.13 µg/mL (≈ 7.77 µM) in assay [2]; 0.195 µg/mL (≈ 0.484 µM) in assay [3]; 1.56 µg/mL (≈ 3.87 µM) in assay [4]; 6.25 µg/mL (≈ 15.5 µM) in assay [5]; 6.25 µg/mL (≈ 15.5 µM) in assay [6].
For `CC(C)CNCc1c(F)cc2c(=O)c(C(=O)O)cn(C3CC3)c2c1F`, the MIC was over 6.25 µg/mL in assay [1]; over 6.25 µg/mL in assay [2]; 1.56 µg/mL (≈ 4.45 µM) in assay [3]; 0.195 µg/mL (≈ 0.557 µM) in assay [4]; 0.098 µg/mL (≈ 0.28 µM) in assay [5]; at most 0.049 µg/mL in assay [6].
In the case of `CCCNCc1c(F)cc2c(=O)c(C(=O)O)cn3c2c1OC[C@@H]3C`, the minimum inhibitory concentration (MIC) in assay [1] is over 6.25 µg/mL; in assay [2], over 6.25 µg/mL; in assay [3] it was 3.13 µg/mL (≈ 9.36 µM); in assay [4], 0.39 µg/mL (≈ 1.17 µM); in assay [5], 0.195 µg/mL (≈ 0.583 µM); in assay [6] it was 0.39 µg/mL (≈ 1.17 µM).
As to `CC1COc2c(CN3CCCC3)c(F)cc3c(=O)c(C(=O)O)cn1c23` (configuration not stated), the MIC in assay [1] was over 6.25 µg/mL; in assay [2], over 6.25 µg/mL; in assay [3] it was 3.13 µg/mL (≈ 9.04 µM); in assay [4], 0.39 µg/mL (≈ 1.13 µM); in assay [5], 0.195 µg/mL (≈ 0.563 µM); in assay [6], 0.39 µg/mL (≈ 1.13 µM).
